# From patent US20260035376A1, “COMPOSITIONS AND METHODS FOR INHIBITION OF RAS” (TheRas, Inc., priority 2022, published 2026)
# How the values were obtained:
# [1] = molecular target: T1, Avi-KRAS G12D (1-169) GppNHp/RAF1 RBD-3×FLAG (52-151) (Homo sapiens, UniProt P01116, G12D); test: Disrupting RAS-effector binding HTRF assay, Raf1 RBD-KRAS G12D-GppNHp; conditions: PPI HTRF, 50 nM Avi-KRAS G12D GppNHp, compound titration 30-0.0045 μM; read-out: Raf1 RBD-KRAS G12D-GppNHp disruption
# T1 construct: 50 nM Avi-KRAS G12D (1-169) GppNHp/RAF1 RBD-3×FLAG (52-151)
# T1 sequence (P01116 1-169 isoform P01116-2 G12D limits assumed): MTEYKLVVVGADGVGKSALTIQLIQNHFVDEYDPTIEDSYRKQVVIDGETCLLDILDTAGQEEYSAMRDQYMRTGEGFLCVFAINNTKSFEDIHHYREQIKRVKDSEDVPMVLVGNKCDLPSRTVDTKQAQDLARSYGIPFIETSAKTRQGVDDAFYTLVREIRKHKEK
# Experimental: (§1) A protein:protein interaction (PPI) Homogeneous Time Resolved Fluorescence (HTRF) assay was used to determine the effectiveness of compounds of the present disclosure in disrupting KRAS protein and effector RAF1 binding.
# (§2) The HTRF assay used the following reagents and proteins: (i) 50 nM Avi-KRAS G12D (1-169) GppNHp/RAF1 RBD-3×FLAG (52-151); (ii) 50 nM Avi-KRAS G12R (1-169) GppNHp/RAF1 RBD-3×FLAG (52-151); (iii) 50 nM Avi-KRAS G12V (1-169) GppNHp/RAF1 RBD-3×FLAG (52-151), (iv) 50 nM Avi-KRAS WT (1-169) GppNHp/RAF1 RBD-3×FLAG (52-151); and (v) 75 nM Avi-RAF1 RBD-3×FLAG. The assay buffer included: 50 mM Tris pH 7.5, 100 mM NaCl, 5 mM MgCl2, 0.1% BSA, […], 10% DMSO. The bead buffer included: 50 mM Tris pH 7.5, 0.01% o Tween 20. Assay volume of 20 μL was used in a 384 well plate-low volume format. Compound titration: 30-0.0045 μM, 3× dilution series.
# (§3) The HTRF assay employed the following protocol:
# (§4) Compounds were dispensed in assay plate (384-well, Grenier Bione #784075) using Echo (model 555) with dose response settings: 200 nL final volume, titration from 30 μM as a 10-point dilution series. Protein mix was prepared in assay buffer, and dispensed on plates, 10 μL per well, then incubated for 1 h at room temperature, with 700 rpm shaking. Reagents mix was prepared and dispensed on plates, 10 μL per well, then incubated for 1 h at room temperature, with 700 rpm shaking.
# (§5) Plates were analyzed on an Envision plate reader using the following setting: Excitation 320 nm, Bandwidth 75 nM; Emission 615 nm, Bandwidth 85 nM, Gain 100%, Flashes 100, Lag 60 μs. Data were reported as percentage of activity, with DMSO as 100%. Data were plotted and analyzed using Prism 8.
# (§6) The biochemical Raf1-KRAS G12D/G12R/G12V/WT-GppNHP disruption assay IC50 of selected compounds described herein are shown in Table 4.
# [2] = molecular target: T2, Avi-KRAS G12V (1-169) GppNHp/RAF1 RBD-3×FLAG (52-151) (Homo sapiens, UniProt P01116, G12V); test: Disrupting RAS-effector binding HTRF assay, Raf1 RBD-KRAS G12V-GppNHp; conditions: PPI HTRF, 50 nM Avi-KRAS G12V GppNHp, compound titration 30-0.0045 μM; read-out: Raf1 RBD-KRAS G12V-GppNHp disruption
# T2 construct: 50 nM Avi-KRAS G12V (1-169) GppNHp/RAF1 RBD-3×FLAG (52-151)
# T2 sequence (P01116 1-169 isoform P01116-2 G12V limits assumed): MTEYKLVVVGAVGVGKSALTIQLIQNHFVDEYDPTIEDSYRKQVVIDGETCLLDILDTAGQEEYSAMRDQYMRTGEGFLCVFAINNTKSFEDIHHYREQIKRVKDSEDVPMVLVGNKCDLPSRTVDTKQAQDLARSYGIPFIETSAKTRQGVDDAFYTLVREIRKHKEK
# Experimental: as §1, §2, §3, §4, §5, §6
# [3] = molecular target: T3, Avi-KRAS G12R (1-169) GppNHp/RAF1 RBD-3×FLAG (52-151) (Homo sapiens, UniProt P01116, G12R); test: Disrupting RAS-effector binding HTRF assay, Raf1 RBD-KRAS G12R-GppNHp; conditions: PPI HTRF, 50 nM Avi-KRAS G12R GppNHp, compound titration 30-0.0045 μM; read-out: Raf1 RBD-KRAS G12R-GppNHp disruption
# T3 construct: 50 nM Avi-KRAS G12R (1-169) GppNHp/RAF1 RBD-3×FLAG (52-151)
# T3 sequence (P01116 1-169 isoform P01116-2 G12R limits assumed): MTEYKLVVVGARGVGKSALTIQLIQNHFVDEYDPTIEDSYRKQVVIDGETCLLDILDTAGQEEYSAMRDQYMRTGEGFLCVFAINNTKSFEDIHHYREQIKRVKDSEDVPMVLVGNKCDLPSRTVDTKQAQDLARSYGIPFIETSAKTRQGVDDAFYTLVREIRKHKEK
# Experimental: as §1, §2, §3, §4, §5, §6
# [4] = molecular target: T4, Avi-KRAS WT (1-169) GppNHp/RAF1 RBD-3×FLAG (52-151) (Homo sapiens, UniProt P01116); test: Disrupting RAS-effector binding HTRF assay, Raf1 RBD-KRAS WT-GppNHp; conditions: PPI HTRF, 50 nM Avi-KRAS WT GppNHp, compound titration 30-0.0045 μM; read-out: Raf1 RBD-KRAS WT-GppNHp disruption
# T4 construct: 50 nM Avi-KRAS WT (1-169) GppNHp/RAF1 RBD-3×FLAG (52-151)
# T4 sequence (P01116 1-169 isoform P01116-2 limits assumed): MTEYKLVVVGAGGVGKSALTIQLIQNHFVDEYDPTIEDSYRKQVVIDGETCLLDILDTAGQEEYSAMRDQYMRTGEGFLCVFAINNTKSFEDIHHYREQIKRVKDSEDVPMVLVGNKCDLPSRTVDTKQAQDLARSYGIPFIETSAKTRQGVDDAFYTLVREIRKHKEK
# Experimental: as §1, §2, §3, §4, §5, §6
# [5] = tested on: KRAS G12D protein/effector signaling in GP2d cells; test: Cell-based pERK HTRF assay in GP2d cell; conditions: 1 h, 60 min incubation
# Experimental: A pERK assay (Perkin Elmer) was used to determine the effectiveness of compounds in disrupting KRAS G12D protein/effector signaling in cells.
# On Day 1, cells (GP2d) were seeded into 96-well plates at 3×10^4 cells/well in 80 μL complete growth media (DMEM, 10% FBS).
# (§7) On Day 2, cells were treated with compounds at 0.25% DMSO. The source plate was created with compounds diluted in media at 5-fold the final assay concentration. The compounds were run in a 9-point concentration curve starting at 1 M, with a half-log dilution between concentrations. 20 μL was transferred onto the cell plates (final volume in wells was 100 μL). Plates were harvested after 60 min incubation by aspirating media and adding kit-supplied 1× supplemented lysis buffer to all wells (50 μL per well). Plates were then placed on a plate shaker and incubated at 850 rpm for an additional 30 min.
# Antibody mixture solution was prepared by diluting aliquoted d2 and Eu Cryptate antibodies 1:20 in kit supplied detection buffer, and mixing the diluted antibodies solutions (1:1 v:v). 4 μL of this solution was then added to a 384-well detection plate (Perkin Elmer; 6008230).
# (§8) Samples were homogenized by pipetting up and down and then transferred (16 μL of cell lysates) from the 96-well cell culture plate to two wells of the HTRF 384-well detection plate containing the antibody solution. Plates were centrifuged (524 g for 1 min) and allowed to incubate between 4 and 24 h at room temperature. Maximum signal was reached after 4 h incubation time and remained stable over a period of 24 hours. Therefore, readings could be made between 4 and 24 h of incubation. Plates were centrifuged again (524 g for 1 min), then analyzed on the EnVision plate reader using the following settings: Excitation 320 nm, Bandwidth 75 nm; Emission 615 nm, Bandwidth 85 nm; Gain 100%; Flashes 100; Lag 60 μs.
# [6] = tested on: KRAS G12V protein/effector signaling in SW620 cells; test: Cell-based pERK HTRF assay in SW620 cell; conditions: Homo sapiens, SW-620, 1 h incubation
# Experimental: pERK assay (Perkin Elmer) was used to determine the effectiveness of compounds in disrupting KRAS G12V protein/effector signaling in cells.
# On Day 1, cells (SW620) were seeded into 96-well plates at 3×10^4 cells/well in 80 μL complete growth media (DMEM, 10% FBS).
# as §7, with “10 μM,” for “1 M,”, “1 h” for “60 min”
# Antibody mixture solution was prepared by diluting aliquoted d2 and Eu Cryptate antibodies 1:20 in kit supplied detection buffer, and mixing the diluted antibodies solutions (1:1 v:v). Four μL of this solution was then added to a 384-well detection plate (Perkin Elmer; 6008230).
# as §8
SMILES,IC50 [1],IC50 [2],IC50 [3],IC50 [4],IC50 [5],IC50 [6]
CCCc1nc(N2CC3CCC(C2)N3)c2cc(C(F)(F)F)c(-c3ccc(F)c4sc(N)c(C#N)c34)c(F)c2n1 [Compound 23],1000 to 10000 nM,> 10000 nM,> 10000 nM,1000 to 10000 nM,≤ 100 nM,–
CC(C)Oc1nc(N2CC3CCC(C2)N3)c2cc(C(F)(F)F)c(-c3ccc(F)c4sc(N)c(C#N)c34)c(F)c2n1 [Compound 8],1000 to 10000 nM,> 10000 nM,> 10000 nM,1000 to 10000 nM,100 to 1000 nM,–
CN(c1ncnc2c(F)c(-c3ccc(F)c4sc(N)c(C#N)c34)c(C(F)(F)F)cc12)[C@@H]1CCNC1 [Compound 58],1000 to 10000 nM,> 10000 nM,> 10000 nM,> 10000 nM,100 to 1000 nM,–
N#Cc1c(N)sc2c(F)ccc(-c3c(C(F)(F)F)cc4c(N5CC6CCC(C5)N6)nc(N5CC[C@@H](O)C5)nc4c3F)c12 [Compound 6],1000 to 10000 nM,> 10000 nM,> 10000 nM,1000 to 10000 nM,100 to 1000 nM,–
N#Cc1c(N)sc2c(F)ccc(-c3c(C(F)(F)F)cc4c(N5CC6CCC(C5)N6)nc(OC[C@@H]5CC(=O)N5)nc4c3F)c12 [Compound 39],1000 to 10000 nM,> 10000 nM,> 10000 nM,1000 to 10000 nM,100 to 1000 nM,–
N#Cc1c(N)sc2c(F)ccc(-c3c(C(F)(F)F)cc4c(N5CC6CCC(C5)N6)nc(OC5CCOCC5)nc4c3F)c12 [Compound 70],–,–,–,–,≤ 100 nM,> 10000 nM
CNc1nc(N2CC3CCC(C2)N3)c2cc(C(F)(F)F)c(-c3ccc(F)c4sc(N)c(C#N)c34)c(F)c2n1 [Compound 9],1000 to 10000 nM,> 10000 nM,> 10000 nM,1000 to 10000 nM,100 to 1000 nM,–
N#Cc1c(N)sc2c(F)ccc(-c3c(C(F)(F)F)cc4c(N5CC6CCC(C5)N6)nc(OCC5(CO)CC5)nc4c3F)c12 [Compound 18],100 to 1000 nM,1000 to 10000 nM,1000 to 10000 nM,1000 to 10000 nM,≤ 100 nM,–
COc1nc(N(C)[C@@H]2CCNC2)c2cc(C(F)(F)F)c(-c3ccc(F)c4sc(N)c(C#N)c34)c(F)c2n1 [Compound 59],1000 to 10000 nM,> 10000 nM,> 10000 nM,> 10000 nM,100 to 1000 nM,–
N#Cc1c(N)sc2c(F)ccc(-c3c(C(F)(F)F)cc4c(N5CC6CCC(C5)N6)nc(OC[C@H]5CNC(=O)C5)nc4c3F)c12 [Compound 24],100 to 1000 nM,1000 to 10000 nM,1000 to 10000 nM,100 to 1000 nM,≤ 100 nM,–
N#Cc1c(N)sc2c(F)ccc(-c3c(C(F)(F)F)cc4c(N5CC6CCC(C5)N6)nc(N5CCNS(=O)(=O)CC5)nc4c3F)c12 [Compound 26],1000 to 10000 nM,> 10000 nM,> 10000 nM,1000 to 10000 nM,100 to 1000 nM,–
